Patent publication US20100280024A1, “RENIN INHIBITORS” (priority 2007, published 2010)
Where a name gives a salt, the structure may show the parent alone.

What was measured:
[1] = target: T1, Renin (Homo sapiens, UniProt P00797); assay: Renin inhibition in human plasma (IC50); format: biochemical; parameters: from tissue; host or cells: human plasma
T1 sequence (P00797 67-406): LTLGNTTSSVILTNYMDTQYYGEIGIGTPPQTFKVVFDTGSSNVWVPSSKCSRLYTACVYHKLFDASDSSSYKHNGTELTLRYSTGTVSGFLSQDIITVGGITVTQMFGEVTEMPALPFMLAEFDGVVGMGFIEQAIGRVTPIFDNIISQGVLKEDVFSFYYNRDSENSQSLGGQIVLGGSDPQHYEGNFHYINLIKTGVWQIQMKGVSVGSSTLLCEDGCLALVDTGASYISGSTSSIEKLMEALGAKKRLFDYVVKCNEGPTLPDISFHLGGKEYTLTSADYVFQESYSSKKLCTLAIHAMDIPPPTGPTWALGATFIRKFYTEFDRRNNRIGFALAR
Text: Following table represents measured IC50 values of the selected compounds for its Renin inhibition in human plasma.

[2] = target: T1, Renin; assay: In-vitro renin inhibition assay (modified Cayman renin inhibitor screening assay, fluorescence); format: biochemical; parameters: purchased Cayman 10006270; details: 37° C., 30 mins; for inhibition at 0.1 µM: read-out: Renin inhibition (percent inhibition of renin activity) at 0.1 μM; for inhibition at 1 µM: read-out: Renin inhibition (percent inhibition of renin activity) at 1 μM
Method: In-Vitro Renin Inhibition Assay
The enzymatic in vitro assay was performed in 96 well polypropylene plate (Nunc), using a modified Renin inhibitor screening assay protocol (Cayman, cat no: 10006270). The reaction system comprised assay buffer containing 50 mM Tris-HCL, pH=8.0 & 100 mM sodium chloride, human recombinant renin (1:20 diluted with fixed activity), synthetic renin substrates (9.5 μM) and different concentrations of renin inhibitors in DMSO in a total reaction system of 100 μl. The entire incubation mixture were incubated at 37° C. for 30 mins and the fluorescence was read in kinetic mode using excitation wavelengths of 335-345 nm and emission wavelengths of 485-510 nm. Enzyme inhibition was determined by percent inhibition of renin activity.

Row | Structure (SMILES) | IC50 [1] [µM] | inhibition at 0.1 µM ([2]; compound concentration 0.1 μM) [%] | inhibition at 1 µM ([2]; compound concentration 1 μM) [%] | Renin inhibition (percent inhibition of renin activity) at 0.1 μM ([2]; compound concentration 0.1 μM) | Renin inhibition (percent inhibition of renin activity) at 1 μM ([2]; compound concentration 1 μM)
1 | Cc1cc(Cl)c(OCCOc2ccc(CC(CN)C(=O)N3CCCCC3)cc2)c(Cl)c1 (centres unmarked) [Example 12, 3-Amino-2-{4-[2-(2,6-dichloro-4-methyl-phenoxy)-ethoxy]-benzyl}-1-piperidin-1-yl-propan-1-one] | 0.0702 | 77 | 90.7 | – | –
2 | Cc1cc(Cl)c(OCCOc2ccc(CC(CN)C(=O)N3CCCc4cc(C(F)(F)F)ccc43)cc2)c(Cl)c1.Cl (centres unmarked) [Example 15A, 3-Amino-2-{4-[2-(2,6-dichloro-4-methyl-phenoxy)-ethoxy]-benzyl}-1-(6-trifluoromethyl-3,4-dihydro-2H -quinolin-1-yl)-propan-1-one hydrochloride] | 0.00785 | – | – | 80.00 | 88.0
3 | COCCCOc1ccc2c(c1)CCCN2C(=O)C(CN)Cc1ccc(OCCOc2c(Cl)cc(C)cc2Cl)cc1 (centres unmarked) [Example 24, 3-Amino-2-{4-[2-(2,6-dichloro-4-methyl-phenoxy)-ethoxy]-benzyl}-1-[6-(3-methoxy-propoxy)-3,4-dihydro-2H-quinolin-1-yl]-propan-1-one] | 0.0254 | 90.7 | 93.2 | – | –
4 | COCC1CCCN(C(=O)C(CN)Cc2ccc(OCCOc3c(Cl)cc(C)cc3Cl)cc2)C1 (centres unmarked) [Example 26, 2-Aminomethyl-3-{4-[2-(2,6-dichloro-4-methyl-phenoxy)-ethoxy]-phenyl}-1-(3-methoxymethyl-piperidin-1-yl)-propan-1-one hydrochloride] | 0.0278 | 92.8 | 93.9 | – | –
5 | Cc1cc(Cl)c(OCCOc2ccc(CC(CN)C(=O)N3CCCc4cc(OC(F)(F)F)ccc43)cc2)c(Cl)c1 (centres unmarked) [Example 27, 3-Amino-2-{4-[2-(2,6-dichloro-4-methyl-phenoxy)-ethoxy]-benzyl}-1-(6-trifluoromethoxy-3,4-dihydro-2H-quinolin-1-yl)-propan-1-one hydrochloride] | 0.000921 | 100 | 99.2 | – | –
6 | NCC(Cc1ccc(OCCOc2c(Cl)cccc2Cl)cc1)C(=O)N1CCCc2cc(C(F)(F)F)ccc21 (centres unmarked) [Example 31, 3-Amino-2-{4-[2-(2,6-dichloro-phenoxy)-ethoxy]-benzyl}-1-(6-trifluoromethyl-3,4-dihydro-2H-quinolin-1-yl)-propan-1-one hydrochloride] | 0.0287 | 94.1 | 102 | – | –

More lines, now with the values ahead:

Row | IC50 [1] [µM] | inhibition at 0.1 µM ([2]; compound concentration 0.1 μM) [%] | inhibition at 1 µM ([2]; compound concentration 1 μM) [%] | Renin inhibition (percent inhibition of renin activity) at 0.1 μM ([2]; compound concentration 0.1 μM) | Renin inhibition (percent inhibition of renin activity) at 1 μM ([2]; compound concentration 1 μM) | Structure (SMILES)
7 | 0.000829 | 100 | – | – | – | NCC(Cc1ccc(OCCOc2c(Cl)cccc2Cl)cc1)C(=O)N1CCCc2cc(OC(F)(F)F)ccc21 (centres unmarked) [Example 32, 3-Amino-2-{4-[2-(2,6-dichloro-phenoxy)-ethoxy]-benzyl}-1-(6-trifluoromethoxy-3,4-dihydro-2H-quinolin-1-yl)-propan-1-one hydrochloride]
8 | – | 80.1 | 98.6 | – | – | Cc1cc(Cl)c(OCCOc2ccc(CC(CN)C(=O)N3CCCc4cc(C(F)(F)F)ccc43)cn2)c(Cl)c1 (centres unmarked) [Example 41, 3-Amino-2-{6-[2-(2,6-dichloro-4-methyl-phenoxy)-ethoxy]-pyridin-3-ylmethyl}-1-(6-trifluoromethyl-3,4-dihydro-2H-quinolin-1-yl)-propan-1-one]
9 | – | 71 | 82.5 | – | – | Cc1cc(Cl)c(OCCOc2ccc(CC(CN)C(=O)N3CCCCC3)cn2)c(Cl)c1 (centres unmarked) [Example 42, 2-Aminomethyl-3-{6-[2-(2,6-dichloro-4-methyl-phenoxy)-ethoxy]-pyridin-3-yl}-1-piperidin-1-yl-propan-1-one]
10 | – | – | 64.2 | – | – | Cc1cc(Cl)c(OCCOc2ccc(CC(CN)C(=O)N3CCCc4ccccc43)cn2)c(Cl)c1 (centres unmarked) [Example 43, 2-Aminomethyl-3-{6-[2-(2,6-dichloro-4-methyl-phenoxy)-ethoxy]-pyridin-3-yl}-1-(3,4-dihydro-2H-quinolin-1-yl)-propan-1-one]
11 | – | 63.1 | 96.3 | – | – | Cc1cc(Cl)c(OCCOc2ccc(CC(CN)C(=O)N3CCCc4cc(F)ccc43)cn2)c(Cl)c1 (centres unmarked) [Example 44, 3-Amino-2-{6-[2-(2,6-dichloro-4-methyl-phenoxy)-ethoxy]-pyridin-3-ylmethyl}-1-(6-fluoro-3,4-dihydro-2H-quinolin-1-yl)-propan-1-one hydrochloride]
12 | – | 18.7 | 97.1 | – | – | Cc1cc(Cl)c(OCCCOc2ccc(CC(CN)C(=O)N3CCCc4ccccc43)cc2)c(Cl)c1 (centres unmarked) [Example 45, 2-Aminomethyl-3-{4-[3-(2,6-dichloro-4-methyl-phenoxy)-propoxy]-phenyl}-1-(3,4-dihydro-2H-quinolin-1-yl)-propan-1-one]
13 | – | 43.1 | – | – | – | COc1ccccc1COCCCOc1ccc(CC(CN)C(=O)N2CCCc3cc(C(F)(F)F)ccc32)cc1 (centres unmarked) [Example 47, 3-Amino-2-{4-[3-(2-methoxy-benzyloxy)-propoxy]-benzyl}-1-(6-trifluoromethyl-3,4-dihydro-2H-quinolin-1-yl)-propan-1-one]
14 | – | – | 58.5 | – | – | COc1cc(CC(CN)C(=O)N2CCCc3ccccc32)ccc1OCCOc1c(Cl)cc(C)cc1Cl (centres unmarked) [Example 48, 3-Amino-2-{4-[2-(2,6-dichloro-4-methyl-phenoxy)-ethoxy]-3-methoxy-benzyl}-1-(3,4-dihydro-2H-quinolin-1-yl)-propan-1-one hydrochloride]
15 | – | 93.1 | – | – | – | CC(C)(C)c1ccc2c(c1)CCCN2C(=O)C(CN)Cc1ccc(OCCOc2c(Cl)cccc2Cl)cc1 (centres unmarked) [Example 53, 3-Amino-1-(6-tert-butyl-3,4-dihydro-2H-quinolin-1-yl)-2-{4-[2-(2,6-dichloro-phenoxy)-ethoxy]-benzyl}-propan-1-one hydrochloride]
